# Experimental data reported in PMC11253546, “Fidelity in plant hormone modifications catalyzed by Arabidopsis GH3 acyl acid amido synthetases” (The Journal of Biological Chemistry, 2024).
# Columns and labels:
# AtGH3.11/JAR1 = molecular target: T1, AtGH3.11/JAR1 (Arabidopsis thaliana, UniProt Q9SKE2); assay: single-turnover TLC with [α-32P]ATP, acyl-AMP formation; assay type: biochemical; conditions: first half-reaction with JA, no amino acid, 1 mM MgCl2, pH 8.0, 25 °C; labelled compound
# T1 sequence (Q9SKE2 1-575): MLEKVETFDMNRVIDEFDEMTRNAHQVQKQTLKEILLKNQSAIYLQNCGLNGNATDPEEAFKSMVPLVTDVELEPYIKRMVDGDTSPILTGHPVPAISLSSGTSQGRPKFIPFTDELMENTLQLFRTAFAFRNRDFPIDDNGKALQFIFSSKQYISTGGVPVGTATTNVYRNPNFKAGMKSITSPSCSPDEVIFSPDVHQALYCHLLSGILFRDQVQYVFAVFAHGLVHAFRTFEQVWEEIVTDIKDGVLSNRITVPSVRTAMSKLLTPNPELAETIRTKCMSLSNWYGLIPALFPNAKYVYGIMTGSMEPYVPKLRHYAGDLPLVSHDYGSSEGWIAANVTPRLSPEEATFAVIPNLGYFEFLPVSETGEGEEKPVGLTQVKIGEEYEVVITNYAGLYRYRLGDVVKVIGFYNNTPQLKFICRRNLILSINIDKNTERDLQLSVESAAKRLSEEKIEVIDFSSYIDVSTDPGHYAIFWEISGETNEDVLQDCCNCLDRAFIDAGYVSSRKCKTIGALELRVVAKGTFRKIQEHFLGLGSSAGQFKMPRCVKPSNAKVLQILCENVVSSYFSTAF
# GH3-N2/C5 = tested on: T2, GH3-N2/C5; assay: coupled myokinase/pyruvate kinase/lactate dehydrogenase assay of AMP formation, A340; assay type: biochemical, Arabidopsis thaliana; conditions: 1 mM ATP, 5 mM aspartate, 1 mM MgCl2, pH 8.0, 25 °C
# T2 construct: gene GH3.2; one fusion chain: AtGH3.2 residues 1-442 then AtGH3.5 residues 450-608; codon-optimized, pET-28a, His-tagged, E. coli Rosetta2 (DE3), monomer
# From the text: coupled myokinase/pyruvate kinase/lactate dehydrogenase assay of AMP formation, A340 on GH3-N2/C5
# AtGH3.12/PBS3 = molecular target: T3, AtGH3.12/PBS3 (Arabidopsis thaliana, UniProt Q9LYU4); assay: TLC with [α-32P]ATP, acyl-AMP and AMP formation; assay type: biochemical; conditions: without or with glutamate, 1 mM MgCl2, pH 8.0, 25 °C
# T3 construct: gene GH3.12; once misprinted PBS2
# T3 sequence (Q9LYU4 1-575): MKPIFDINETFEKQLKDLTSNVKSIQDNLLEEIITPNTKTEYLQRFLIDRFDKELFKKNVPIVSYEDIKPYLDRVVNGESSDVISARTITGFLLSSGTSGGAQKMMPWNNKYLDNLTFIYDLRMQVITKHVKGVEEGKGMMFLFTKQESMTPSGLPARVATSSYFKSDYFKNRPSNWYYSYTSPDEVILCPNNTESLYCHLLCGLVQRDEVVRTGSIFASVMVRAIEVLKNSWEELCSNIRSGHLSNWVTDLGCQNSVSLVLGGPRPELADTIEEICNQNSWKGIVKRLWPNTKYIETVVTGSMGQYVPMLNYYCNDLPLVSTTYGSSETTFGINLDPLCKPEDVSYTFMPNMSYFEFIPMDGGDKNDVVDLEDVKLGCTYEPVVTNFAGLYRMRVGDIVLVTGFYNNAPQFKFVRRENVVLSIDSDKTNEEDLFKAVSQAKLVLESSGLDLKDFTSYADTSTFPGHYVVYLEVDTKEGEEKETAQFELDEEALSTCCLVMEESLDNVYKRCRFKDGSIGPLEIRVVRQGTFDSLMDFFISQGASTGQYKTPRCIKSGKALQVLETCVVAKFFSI
Km (GH3-N2/C5) [µM],Compound,also measured
,Nc1ncnc2c1ncn2[C@@H]1O[C@H](COP(=O)(O)OP(=O)(O)OP(=O)(O)O)[C@@H](O)[C@H]1O [ATP],"single-turnover TLC with [α-32P]ATP, acyl-AMP formation (AtGH3.11/JAR1): rates of turnover from ATP to acyl-AMP (k1)"
880 ± 68,O=C(O)c1ccccc1 [BA],
540 ± 17,O=C(O)Cc1c[nH]c2ccccc12 [IAA],
,C=C(O[C@@H]1C=C(C(=O)O)C=C[C@H]1O)C(=O)O [chorismate],"TLC with [α-32P]ATP, acyl-AMP and AMP formation (AtGH3.12/PBS3): reactions using BA, 4-HBA, and chorismate produced acyl-AMP and AMP"

Compound,Km (GH3-N2/C5) [µM],also measured
O=C(O)Cc1ccccc1 [PAA],1500 ± 280,
